Results on four molecules are retold here after PMC8196973, “Synthesis, Molecular Docking Analysis and Biological Evaluations of Saccharide-Modified Thiadiazole Sulfonamide Derivatives” (International Journal of Molecular Sciences, 2021).

Assay [1] deals with human colon cancer HT-29 cells. Kind of assay: CCK-8 cell viability assay, HT-29. Type of assay: cell-based. Particulars: HT-29, normoxic and hypoxic, 48 h, Figure 5. The method, then: (§1) The MDA-MB-231, HT-29 and MG-63 cell lines were provided by KeyGEN BioTECH Ltd (Nanjing, Jiangsu, China). The cells were digested and counted to prepare a cell suspension of 5.0 × 10^4 cells/mL, and then 100 μL of cell suspension was added to each well of the 96-well cell culture plate. The plates were placed in a 37 °C, 5% CO2 incubator (Corning Incorporated, Corning, New York, USA) for 24 h. The drug was diluted with the culture medium to the required concentration, ed100 μL of the corresponding drug-containing medium was added to each well, and a negative control group was set up at the same time. The 96-well cell culture plates were placed into a normoxic incubator (37 °C, 5% CO2) and hypoxic incubator (37 °C, 5% CO2, 0.5% O2, 94.5% N2) for 48 h. Finally, the 96-well plate was stained with CCK-8 and the OD value determined (λ = 450 nm).
(In general: Tetrazolium dyes change colour on reduction, which living cells bring about.)

The test system of assay [2] is breast adenocarcinoma MDA-MB-231 cells. Kind of assay: CCK-8 cell viability assay, MDA-MB-231. The class given is cell-based, human. Particulars: MDA-MB-231, normoxic and hypoxic, 48 h, Figure 5. The method, then: as §1
Assay [3] addresses hCA II (Homo sapiens, UniProt P00918). In words: hCA II enzyme inhibition assay (4-NPA hydrolysis).
Method: (§4) Carbonic anhydrase can catalyze the hydrolysis of 4-nitrophenyl acetate (4-NPA). […] The experimental buffer consisted of 15 mmol/L 4-(2-hydroxyethyl)-1-piperazineethanesulfonic acid (HEPES) (pH = 7.40), 0.01% tetraethylene glycol monododecyl ether (Brij), and 100 mmol/L NaCl. […] Then, 18 μL of enzyme solution was transferred into 384-well plates in duplicate. Stock solutions of the inhibitors (10.0 mmol/L) were prepared using DMSO as solvent, and then diluted 1:3 with DMSO. […] Then 2.00 μL of each inhibitor was added to each well. All compounds were allowed to incubate with the enzyme for 15 min at 25 °C to form the Enzyme-Inhibitor (E-I) complex. After that, substrate 4-NPA (1.00 mmol/L, 20.00 μL, Sigma-Aldrich, St. Louis, MI, USA) was added into the E-I complex solution and incubated for 60, 90, 90 min at 25 °C, respectively.
Assay [4] deals with hCA XII (Homo sapiens, UniProt O43570). Kind of assay: hCA XII enzyme inhibition assay (4-NPA hydrolysis).
Method: as §4
Assay [5] has as its system human osteosarcoma MG-63. Kind of assay: CCK-8 cell viability assay, MG-63. The note with it: hypoxic conditions. Type of assay: cell-based. Here is the method:
Then, considering the high inhibitory activity of 14a on the two isoforms of CA IX and XII, we evaluated the inhibitory activity of 14a on human osteosarcoma MG-63 featuring high expression of CA IX and XII.
as §1

In assay [6] the target is hCA IX (Homo sapiens, UniProt Q16790). Kind of assay: hCA IX enzyme inhibition assay (4-NPA hydrolysis).
Method: as §4
The subject of assay [7] is MDA-MB-231. In words: Extracellular pH measurement, MDA-MB-231. The class given is cell-based, human. The note with it: MDA-MB-231, 0.1 and 1 mM, normoxic and hypoxic, Figure 7. The method, then:
(§2) The high expression of CA IX plays an important role in the maintenance of the tumor cell microenvironment, and inhibiting its activity might have a potential impact on the pH of the tumor microenvironment. To evaluate the effect of compounds on the pH of the microenvironment, the pH values under normoxic and hypoxic conditions were determined in the presence of compounds 14b, 14h, and 14p. […] In addition, this improvement in pH was dose-dependent.
(§3) The measurement of the change of extracellular pH referred to the reported literature. In brief, cancer cells were incubated for 12 h. After removing the medium, fresh medium was added to the plates and then incubated for 48 h under hypoxia or normoxia. The pH of the medium was measured immediately. The tested compounds were dissolved in DMSO and diluted with culture medium to the desired concentration. After the addition of tested compounds, the same procedure was repeated.

The subject of assay [8] is HT-29. In words: Extracellular pH measurement, HT-29. The class given is cell-based, human. Particulars: HT-29, 0.1 and 1 mM, normoxic and hypoxic, Figure 7. The method, then: as §2, §3

hCA XII, sequence (O43570 25-354): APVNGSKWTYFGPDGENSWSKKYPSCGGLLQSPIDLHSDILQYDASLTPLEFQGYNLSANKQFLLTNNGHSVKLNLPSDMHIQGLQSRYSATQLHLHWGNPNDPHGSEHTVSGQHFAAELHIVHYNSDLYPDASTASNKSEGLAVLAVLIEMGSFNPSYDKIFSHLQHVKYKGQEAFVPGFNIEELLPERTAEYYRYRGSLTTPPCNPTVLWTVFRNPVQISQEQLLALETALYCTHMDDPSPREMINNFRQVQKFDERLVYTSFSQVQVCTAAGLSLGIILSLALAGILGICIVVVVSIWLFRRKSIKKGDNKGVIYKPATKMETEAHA

As for `NS(=O)(=O)c1nnc(NC(=O)c2ccc(NC(=O)CCCC(=O)N[C@@H]3O[C@H](CO)[C@@H](O)[C@H](O)[C@H]3O)cc2)s1` [Compound 14a, N^1-(4-((5-Sulfamoyl-1,3,4-thiadiazol-2-yl)carbamoyl)phenyl)-N^5-((2R,3R,4S,5S,6R)-3,4,5-trihydroxy-6-(hydroxymethyl)tetrahydro-2H-pyran-2-yl)glutaramide], the “inhibitory activity on cell viability compared with AZM” value in assay [1] and in assay [2] was “better than those of the positive control drug AZM” in each case. Moreover, the concentration for half-maximal inhibition (IC50) in assay [3] was 0.141 ± 0.0129 µM; in assay [4], 0.141 ± 0.0055 µM; in assay [6] it was 0.029 ± 0.0042 µM. Further, in assay [5], the “effect on MG-63 viability compared with AZM” value was “significantly better than that of the positive control AZM”. Further, the “reduction of viability of MG-63 cells” value in assay [5] (800 μM, 48 h) is “approximately 30%”.
Consider `NS(=O)(=O)c1nnc(NC(=O)c2cccc(NC(=O)CCCC(=O)N[C@@H]3O[C@H](CO)[C@@H](O)[C@H](O)[C@H]3O)c2)s1` [Compound 14b, N^1-(3-((5-Sulfamoyl-1,3,4-thiadiazol-2-yl)carbamoyl)phenyl)-N^5-((2R,3R,4S,5S,6R)-3,4,5-trihydroxy-6-(hydroxymethyl)tetrahydro-2H-pyran-2-yl)glutaramide], for which the “inhibitory activity on cell viability compared with AZM” value in assay [1] and in assay [2] was “better than those of the positive control drug AZM” each time. For the same molecule, the “effect on extracellular (tumor) pH” value in assay [7] and in assay [8] was “increased tumor pH to varying degrees” throughout. For the same molecule, the concentration for half-maximal inhibition (IC50) in assay [3] was 0.0803 ± 0.0115 µM; in assay [4], 0.056 ± 0.0085 µM; in assay [6], 0.029 ± 0.0015 µM.
`COc1cc(C(=O)Nc2nnc(S(N)(=O)=O)s2)ccc1NC(=O)CCCC(=O)N[C@@H]1O[C@H](CO)[C@@H](O)[C@H](O)[C@H]1O` [Compound 14h, N^1-(2-Methoxy-4-((5-sulfamoyl-1,3,4-thiadiazol-2-yl)carbamoyl)phenyl)-N^5-((2R,3R,4S,5S,6R)-3,4,5-trihydroxy-6-(hydroxymethyl)tetrahydro-2H-pyran-2-yl)glutaramide]: the “inhibitory activity on cell viability compared with AZM” value in assay [1] and in assay [2] was “better than those of the positive control drug AZM” each time. Moreover, the “effect on extracellular (tumor) pH” value in assay [7] and in assay [8] was “increased tumor pH to varying degrees” each time. Also, the concentration for half-maximal inhibition (IC50) was determined as 0.272 ± 0.009 µM in assay [3], 0.0849 ± 0.0076 µM in assay [4] and 0.0688 ± 0.0102 µM in assay [6].
For the molecule `COc1cc(C(=O)Nc2nnc(S(N)(=O)=O)s2)ccc1NC(=O)CCC(=O)N[C@@H]1O[C@H](CO)[C@@H](O)[C@H](O)[C@H]1O` [Compound 14p, N^1-(2-Methoxy-4-((5-sulfamoyl-1,3,4-thiadiazol-2-yl)carbamoyl)phenyl)-N^4-((2R,3R,4S,5S,6R)-3,4,5-trihydroxy-6-(hydroxymethyl)tetrahydro-2H-pyran-2-yl)succinimide], the “inhibitory activity on cell viability compared with AZM” value in assay [1] and in assay [2] was “better than those of the positive control drug AZM” in each case. For the same molecule, the “effect on extracellular (tumor) pH” value in assay [7] and in assay [8] was “increased tumor pH to varying degrees” each time. For the same molecule, the half-maximal inhibitory concentration (IC50) in assay [3] worked out at 0.332 ± 0.0168 µM; in assay [4], 0.0423 ± 0.0094 µM; in assay [6], 0.0479 ± 0.0071 µM.

One may read the IC50 as the concentration that inhibits the measured activity by half. Read a high IC50 as lower potency.
